Measured values as given in patent publication US20090054333A1, “Peptide inhibitors of cyclin-dependent kinase activity and uses thereof” (priority 2006, published 2009).
No end group written: not given here.

B1: Spa38: pRb2/p130 amino acids 641 to 702 (62 amino acids long), SEQ ID NO:1 (protein, listed as Homo sapiens)
chain: LTPRRVTEVRADTGGLGRSITSPTTLYDRYSSPPASTTRRRLFVENDSPSDGGTPGRMPPQP
B2: Spa23: Table 1 construct: pRb2/p130 spacer fragment, amino acids 641-711, 71 amino acids (protein)
chain: LTPRRVTEVRADTGGLGRSITSPTTLYDRYSSPPASTTRRRLFVENDSPSDGGTPGRMPPQPLVNAVPVQN
modifications: left off: a dimerising Fc or GST
B3: Spa: pRb2/p130 spacer fragment, amino acids 616-711, 96 amino acids (protein)
chain: VPTCEEVMPPQNLERADEICIAGSPLTPRRVTEVRADTGGLGRSITSPTTLYDRYSSPPASTTRRRLFVENDSPSDGGTPGRMPPQPLVNAVPVQN
modifications: left off: a dimerising Fc or GST
B4: Spc: pRb2/p130 spacer fragment, amino acids 755-828, 73 amino acids (protein)
chain: GGITFFPVQVNVGGQAQAVTGSIQPLSAQALAGSLSSQQVTGTTLQVPGQVAIQQISPGGQQQKQGQSVTSSSN
modifications: left off: a dimerising Fc or GST
notes: pRb2/p130 spacer fragment, amino acids 755-828, 73 amino acids

Target: cdk2
Assay: in vitro cdk2 kinase assay with GST-fusion proteins, histone H1 substrate
Type: biochemical
Design: key to Kinase assay (inhibitory effect on cdk2 activity): P=positive; N=negative
Details: for Kinase assay (inhibitory effect on cdk2 activity): 0.1 μg GST-fusion protein, cdk2 immunoprecipitated from NIH/3T3; for inhibitory effect on cdk2 activity / histone H1 phosphorylation in vitro: GST-fusion protein added to cdk2 immunoprecipitate from NIH/3T3
Method: Constructs preparation: A prokaryotic expression vector pGEX-2T (Stratagene Inc., La Jolla Calif.) and polymerase chain reaction (PCR) were used to generate chimeric Glutathione-S-Transferase constructs. The primers used by PCR to amplify the fragments that were subcloned in the pGEX-2T were derived from the 5′ and 3′ ends of different regions of the spacer domain of […]. The mammalian expression vector pEF6/V5-His TOPO (Invitrogen Corp, Carlsbad, Calif.) was used to generate the constructs pEF6/V5-His-spacer and pEF6/V5-His-310 that express the correspondent genes with a C-terminal V5 epitope. The spacer and the 310 fragments were PCR-amplified with the respective primers (Table 1) to generate 3′ends of the cDNAs without stop codons and were subsequently subcloned into pEF6/V5-His TOPO (Invitrogen Corp, Carlsbad, Calif.) according to the manufacturer's instructions to obtain cDNAs coding for C-terminal fusion proteins. All generated constructs were confirmed by automated sequencing. Information regarding the primers is available upon request.
GST Fusion protein preparation: XL1-Blue bacteria carrying the pGEX-2T vectors were grown to mid log phase and then induced to express protein by adding 0.25 mM of isopropyl-1-thio-β-D-galactopyranoside (IPTG, Roche Applied Science, Indianapolis, Ind.). The cultures were shaken for 4 h; bacteria were then pelleted and resuspended in NENT buffer (20 mM Tris pH 8, 100 mM NaCl, 1 mM EDTA, 0.5% NP-40). Cell suspensions were sonicated, pelleted and the supernatant collected. The remaining bacteria were then resuspended in NENT buffer plus 2% of N-Lauryl-Sarcosine, pelleted and the supernatants were collected again. The combined supernatants were incubated with Glutathione agarose (Amersham Biosciences, Piscataway, N.J.) overnight at 4° C. The agarose was then pelleted and washed three times in NENT buffer.
Kinase assays: Cell lysates from NIH/3T3 were prepared by resuspending pelleted cells in 500 μl of lysis buffer (50 mM Tris, 5 mM EDTA, 250 mM NaCl, 50 mM NaF, 0.1% Triton, 0.1 mM Na3VO4, plus protease inhibitors). An equal amount of protein for each fraction (100 μg) was immunoprecipitated with a polyclonal anti-cdk2 antibody (De Luca et al., 1997, J Biol Chem, 272, 20971-4). The complexes were pulled down with protein A-Sepharose and washed three times with lysis buffer and twice with lysis buffer containing 400 mM NaCl. The complexes were equilibrated in kinase assay buffer (20 mM HEPES pH 7.4, 10 mM MgAc, […], 1 mM DTT). In order to detect the in vitro inhibition of cdk2 activity, each sample was incubated with an equal amount (0.1 μg) of each pGEX-2T fusion protein, in a final volume of 20 μl of kinase buffer, using 5 μCi/sample of γ-ATP (Amersham Biosciences, Piscataway, N.J.) and 2 μg of Histone H1 for 30 minutes at 30° C. Kinase assays were repeated at least three times, giving an inter assay standard deviation within 10% after normalization for protein amount. In order to evaluate the in vivo inhibition of cdk2 activity, cdk2 was immunoprecipitated, as described above, from NIH/3T3 cells transiently transfected with 5 μg of pEF6/V5-spacer, pEF6/V5-Spa310 or the vector alone as a control. The immunocomplexes were split in two tubes. A half of each sample was assayed for cdk2 activity in a final volume of 20 μl of kinase buffer with 5 μCi/sample of γ-ATP and 2 μg of Histone H1 for 30 min. at 30° C.; the second one was tested in western blot analysis to confirm that all the samples contained the amount of cdk2 immunoprecipitated. Briefly the samples were separated into 12% SDS polyacrylamide gels (SDS-PAGE), and then transferred into a nitrocellulose membrane (Schleicher & Schuell, Germany). The membrane was blocked with 5% non-fat dry milk in 1×TBST and incubated with the polyclonal anti-cdk2 antibody described above. […]

Molecule	Kinase assay (inhibitory effect on cdk2 activity)	inhibitory effect on cdk2 activity / histone H1 phosphorylation in vitro
Spa311: pRb2/p130 amino acids 641 to 682 (42 amino acids long), SEQ ID NO:2 (LTPRRVTEVRADTGGLGRSITSPTTLYDRYSSPPASTTRRRL; listed as Homo sapiens)	P	–
Spa2: pRb2/p130 spacer fragment, amino acids 641-666, 26 amino acids (LTPRRVTEVRADTGGLGRSITSPTTL; UniProt Q08999 641-666, looked up, fragment)	N	little or no inhibitory effect
Spa12: pRb2/p130 spacer fragment, amino acids 616-666, 51 amino acids (VPTCEEVMPPQNLERADEICIAGSPLTPRRVTEVRADTGGLGRSITSPTTL; cysteine pairing not given here; also: fused to dimerising Fc or GST)	N	–
Spa72: Table 1 construct: pRb2/p130 spacer fragment, amino acids 652-711, 60 amino acids (DTGGLGRSITSPTTLYDRYSSPPASTTRRRLFVENDSPSDGGTPGRMPPQPLVNAVPVQN; also: fused to dimerising Fc or GST)	N	–
Spa312: pRb2/p130 spacer fragment, amino acids 641-673, 33 amino acids (LTPRRVTEVRADTGGLGRSITSPTTLYDRYSSP; also: fused to dimerising Fc or GST)	N	–
Spa1: pRb2/p130 spacer fragment, amino acids 616-642, 27 amino acids (VPTCEEVMPPQNLERADEICIAGSPLT; cysteine pairing not given here; also: fused to dimerising Fc or GST)	N	little or no inhibitory effect
Spa3: pRb2/p130 spacer fragment, amino acids 663-711, 49 amino acids (PTTLYDRYSSPPASTTRRRLFVENDSPSDGGTPGRMPPQPLVNAVPVQN; also: fused to dimerising Fc or GST)	N	little or no inhibitory effect
Spb: pRb2/p130 spacer fragment, amino acids 712-754, 43 amino acids (VSGETVSVTPVPGQTLVTMATATVTANNGQTVTIPVQGIANEN; also: fused to dimerising Fc or GST)	N	–
B1	P	–
B2	P	able to inhibit cdk2 activity
B3	P	inhibitory effect on histone H1 phosphorylation
B4	N	–
